Patent US8304447B2, “2-acylaminopropoanol-type glucosylceramide synthase inhibitors” (Genzyme Corporation, priority 2007, dated 2012)

These compounds were tested on GM3 (assay: GM3 Elisa assay). Conditions: 48 h, Table 1; B16-FO cells, 2 days incubation; read-out: IC50_uM_Mean.
Assay type: cell-based
How it was run: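 Murine B16-FO melanoma cells attached 6 h on collagen, then exposed to compounds for 2 days at 37 °C. After formaldehyde fixation, cell-surface GM3 (NeuAc) was detected by anti-GM3 IgM and peroxidase anti-mouse IgM with Quantablu fluorescence (Ex 325/Em 420).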

Row | IC50 [nM] | SMILES
1 | ≤ 100 | O=C(CCCCCCCCCCCc1cccnc1)N[C@H](CN1CCCC1)[C@H](O)c1ccc2c(c1)OCCO2 [Compound 305]

Same assay, conditions: 48 h, Table 2; B16-FO cells, 2 days incubation; read-out: IC50_uM_Mean

Row | SMILES | IC50 [nM]
2 | O=C(CCCc1nc(-c2ccc(Cl)cc2)no1)N[C@H](CN1CCCC1)[C@H](OC(=O)CCCc1nc(-c2ccc(Cl)cc2)no1)c1ccc2c(c1)OCCO2 [Compound 253] | 100 to 1000
3 | O=C(CCCc1nc(-c2cccs2)no1)N[C@H](CN1CCCC1)[C@H](OC(=O)CCCc1nc(-c2cccs2)no1)c1ccc2c(c1)OCCO2 [Compound 254] | 100 to 1000
4 | O=C(Cc1csc(-c2cccc(C(F)(F)F)c2)n1)N[C@H](CN1CCCC1)[C@H](OC(=O)Cc1csc(-c2cccc(C(F)(F)F)c2)n1)c1ccc2c(c1)OCCO2 [Compound 255] | 1000 to 3000
5 | COc1ccc(CNC(=O)N(C)[C@H](CN2CCCC2)[C@H](O)c2ccc3c(c2)OCCO3)cc1 [Compound 256] | 100 to 1000
6 | O=C(Cc1ccc(OC(F)(F)F)cc1)N[C@H](CN1CCOCC1)[C@H](O)c1ccc2c(c1)OCCO2 [Compound 258] | 3000 to 10000
7 | Cc1ccc(C(=O)CCC(=O)N[C@H](CN2CCCC2)[C@H](O)c2ccc3c(c2)CCCC3)cc1 [Compound 264] | ≤ 100
8 | CC(C)Oc1ccc(C(=O)CCCC(=O)N[C@H](CN2CCCC2)[C@H](O)c2ccc3c(c2)OCO3)cc1 [Compound 265, N-((1R,2R)-1-(benzo[ε][1,3]-dioxol-5-yl)-1-hydroxy-3-(pyrrolidin-1-yl)propan-2-yl)-5-(4-isopropoxyphenyl)-5-oxopentanamide (2S,3S)-2,3-dihydroxysuccinate] | ≤ 100
9 | COc1ccc([C@@H](O)[C@@H](CN2CCCC2)NC(=O)CCCCCC(C)(C)OC)cc1OC [Compound 277] | 3000 to 10000
10 | COc1ccc(C(=O)CCCC(=O)N[C@H](CN2CCCC2)[C@H](O)c2ccc3c(c2)OCCO3)cc1OC [Compound 282, N-((1R,2R)-1-(2,3-dihydrobenzo[β][1,4]dioxin-6-yl)-1-hydroxy-3-(pyrrolidin-1-yl)propan-2-yl)-5-(3,4-dimethoxyphenyl)-5-oxopentanamide] | 1000 to 3000
11 | Cc1ccc(C(=O)CCCC(=O)N[C@H](CN2CCCC2)[C@H](O)c2ccc3c(c2)OCCO3)cc1 [Compound 283, N-((1R,2R)-1-(2,3-dihydrobenzo[b][1,4]dioxin-6-yl)-1-hydroxy-3-(pyrrolidin-1-yl)propan-2-yl)-5-oxo-5-p-tolylpentanamide] | ≤ 100
12 | CC(C)Oc1ccc(C(=O)CCCC(=O)N[C@H](CN2CCCC2)[C@H](O)c2ccc3c(c2)OCCO3)cc1 [Compound 284, N-((1R,2R)-1-(2,3-dihydrobenzo[β][1,4]dioxin-6-yl)-1-hydroxy-3-(pyrrolidin-1-yl)propan-2-yl)-5-(4-isopropoxyphenyl)-5-oxopentanamide] | ≤ 100
13 | C[C@@H](NC(=O)N[C@H](CN1CCCC1)[C@H](O)c1ccc2c(c1)OCCO2)c1ccccc1 [Compound 286, 1-((1R,2R)-1-(2,3-dihydrobenzo[β][1,4]dioxin-6-yl)-1-hydroxy-3-(pyrrolidin-1-yl)propan-2-yl)-3-(®-1-phenylethyl)urea] | 3000 to 10000
14 | O=C(NCCc1cccs1)N[C@H](CN1CCCC1)[C@H](O)c1ccc2c(c1)OCCO2 [Compound 287, 1-((1R,2R)-1-(2,3-dihydrobenzo[β][1,4]dioxin-6-yl)-1-hydroxy-3-(pyrrolidin-1-yl)propan-2-yl)-3-(2-(thiophen-2-yl)ethyl)urea] | 1000 to 3000
15 | CCCCCCCCCCCCCCCC(=O)N[C@H](CN1CCCC1)[C@H](O)c1ccc(O)cc1 [Compound 309] | ≤ 100
16 | CCCCCCCC(=O)N[C@H](CNCCCC)[C@H](O)c1ccc2c(c1)OCCO2 [Compound 310] | 1000 to 3000
17 | CCCCCCCC(=O)N[C@H](CN1CCCC1)[C@H](O)CCCCCCC [Compound 311] | 1000 to 3000
18 | CCCCCCCCCCCCCCCC(=O)N[C@H](CN1CCCC1)[C@H](O)CCCCCCC [Compound 312] | 100 to 1000
19 | CCCCCCCC(=O)N[C@H](CN1CCC(CN2CCCC2)C1)[C@H](O)c1ccc2c(c1)OCCO2 (stereo partly shown) [Compound 313] | ≤ 100
20 | CCCCCCCC(=O)N[C@H](CN1C(C)CCC1C)[C@H](O)c1ccc2c(c1)OCCO2 (stereo partly shown) [Compound 314] | 1000 to 3000
21 | CCCCCCCC(=O)N[C@H](CN1CCCC1)[C@H](OC)c1ccc2c(c1)OCCO2 [Compound 315] | 100 to 1000
22 | CCCCCCCC(=O)N[C@H](CN1CCCC1CN1CCCC1)[C@H](O)c1ccc2c(c1)OCCO2 (stereo partly shown) [Compound 316] | 3000 to 10000
23 | CCCCCCCCCCCCCCCC(=O)N[C@H](CN1CCOCC1)[C@H](O)c1ccccc1 [Compound 317] | 100 to 1000
24 | CCCCCCCC(=O)N[C@H](CN1CCCC1)[C@H](O)c1cc(O)c2c(c1)OCCO2 [Compound 318] | 100 to 1000
25 | CCCCCCCC(=O)N[C@H](CN1CCCC1)[C@H](O)c1cc(OC)c2c(c1)OCCO2 [Compound 319] | 100 to 1000

Continued, values first:

Row | IC50 [nM] | SMILES
26 | 100 to 1000 | COc1ccc([C@@H](O)[C@@H](CN2CCCC2)NC(=O)Cc2ccc(C(F)(F)F)cc2)cc1 [Compound 251, N-((1R,2R)-1-hydroxy-1-(4-methoxyphenyl)-3-(pyrrolidin-1-yl)propan-2-yl)-2-(4-(trifluoromethyl)phenyl)acetamide]
27 | 100 to 1000 | Cc1ccc(OCCC(=O)N[C@H](CN2CCCC2)[C@H](OC(=O)CCOc2ccc(C)cc2)c2ccc3c(c2)OCCO3)cc1 [Compound 252]
28 | 3000 to 10000 | COc1ccc(OCCC(=O)N[C@H](CN2CCOCC2)[C@H](O)c2ccc3c(c2)OCCO3)cc1 [Compound 257, N-((1R,2R)-1-(2,3-dihydrobenzo[β][1,4]dioxin-6-yl)-1-hydroxy-3-morpholinopropan-2-yl)-3-(4-methoxyphenoxy)propanamide]
29 | ≤ 100 | COc1ccc(OCCC(=O)N[C@H](CN2CCCC2)[C@H](O)c2ccc3c(c2)OCO3)cc1 [Compound 259]
30 | ≤ 100 | CCCCc1ccc([C@@H](O)[C@@H](CN2CCCC2)NC(=O)CCOc2ccc(OC)cc2)cc1 [Compound 260]
31 | 100 to 1000 | COc1ccc(OCCC(=O)N[C@H](CN2CCCCC2)[C@H](O)c2ccc3c(c2)OCCO3)cc1 [Compound 261, N-((1R,2R)-1-(2,3-dihydrobenzo[β][1,4]dioxin-6-yl)-1-hydroxy-3-(piperidin-1-yl)propan-2-yl)-3-(4-methoxyphenoxy)propanamide]
32 | ≤ 100 | COc1ccc(OCCC(=O)N[C@H](CN2CCCC2)[C@H](O)c2ccc(OC)cc2)cc1 [Compound 262, N-[2-Hydroxy-2-(4-methoxy-phenyl)-1-pyrrolidin-1-ylmethyl-ethyl]-3-(4-methoxy-phenoxy)-propionamide]
33 | 100 to 1000 | COc1ccc(CCCC(=O)N[C@H](CN2CCCC2)[C@H](O)c2ccc(OC)cc2)cc1 [Compound 263]
34 | ≤ 100 | CC(C)Oc1ccc(C(=O)CCCCC(=O)N[C@H](CN2CCCC2)[C@H](O)c2ccc3c(c2)OCO3)cc1 [Compound 266]
35 | ≤ 100 | COc1ccc(C(=O)CCCCC(=O)N[C@H](CN2CCCC2)[C@H](O)c2ccc3c(c2)OCO3)cc1 [Compound 267, N-((1R,2R)-1-(benzo[δ][1,3]dioxol-5-yl)-1-hydroxy-3-(pyrrolidin-1-yl)propan-2-yl)-6-(4-methoxyphenyl)-6-oxohexanamide (2S,3S)-2,3-dihydroxysuccinate]
36 | ≤ 100 | CC(C)Oc1ccc(C(=O)CCCCCC(=O)N[C@H](CN2CCCC2)[C@H](O)c2ccc3c(c2)OCO3)cc1 [Compound 268, N-((1R,2R)-1-(benzo[δ][1,3]dioxol-5-yl)-1-hydroxy-3-(pyrrolidin-1-yl)propan-2-yl)-7-(4-isopropoxyphenyl)-7-oxoheptanamide (2S,3S)-2,3-dihydroxysuccinate]
37 | ≤ 100 | COc1ccc(C(=O)CCCCC(=O)N[C@H](CN2CCCC2)[C@H](O)c2ccc(OC)cc2)cc1 [Compound 269]
38 | ≤ 100 | COc1ccc([C@@H](O)[C@@H](CN2CCCC2)NC(=O)CCCC(=O)c2ccc(OC(C)C)cc2)cc1 [Compound 270, 5-(4-Isopropoxy-phenyl)-5-oxo-pentanoic acid [2-hydroxy-2-(4-methoxy-phenyl)-1-pyrrolidin-1-ylmethyl-ethyl]amide]
39 | ≤ 100 | COc1ccc([C@@H](O)[C@@H](CN2CCCC2)NC(=O)CCCCCC(=O)c2ccc(OC(C)C)cc2)cc1 [Compound 271]
40 | ≤ 100 | COc1ccc([C@@H](O)[C@@H](CN2CCCC2)NC(=O)CCCCC(=O)c2ccc(OC(C)C)cc2)cc1 [Compound 272]
41 | 100 to 1000 | COc1ccc([C@@H](O)[C@@H](CN2CCCC2)NC(=O)CCCCCC(C)(C)OC)cc1 [Compound 273]
42 | 1000 to 3000 | COc1ccc(OCCC(=O)N[C@H](CN2CCCC2)[C@H](O)c2ccc(OC)c(OC)c2)cc1 [Compound 274]
43 | ≤ 100 | COC(=O)CO[C@H](c1ccc2c(c1)OCCO2)[C@@H](CN1CCCC1)NC(=O)CCOc1ccc(OC)cc1 [Compound 275]
44 | 100 to 1000 | COc1ccc(C(=O)CCCCCC(=O)N[C@H](CN2CCCC2)[C@H](O)c2ccc(OC)c(OC)c2)cc1 [Compound 276]
45 | > 10000 | COc1ccc([C@@H](O)[C@@H](CN2CCCC2)NC(=O)CCCOc2ccc(C(C)=O)cc2)cc1OC [Compound 278]
46 | 1000 to 3000 | COc1ccc([C@@H](O)[C@@H](CN2CCCC2)NC(=O)CCCCCC(C)=O)cc1 [Compound 279]
47 | ≤ 100 | COc1ccc(C(=O)CCCCCC(=O)N[C@H](CN2CCCC2)[C@H](O)c2ccc(OC)cc2)cc1 [Compound 285, 7-(4-Methoxy-phenyl)-7-oxo-heptanoic acid [2-hydroxy-2-(4-methoxy-phenyl)-1-pyrrolidin-1-ylmethyl-ethyl]-amide]
48 | ≤ 100 | CCCCCCCC(=O)N[C@H](CN1CCCC1)[C@H](O)c1ccc(OC)cc1 [Compound 320, Octanoic acid [2-hydroxy-2(4-methoxy-phenyl)-1-Pyrrolidin1-ylmethyl-ethyl]-amide]

Same assay, conditions: Table 2; B16-FO cells, 2 days incubation; read-out: IC50_uM_Mean

Row | IC50 [nM] | SMILES
49 | 100 to 1000 | COc1ccc([C@@H](O)[C@@H](CN2CCCC2)NC(=O)OCc2ccccc2)cc1 [Compound 289, benzyl (1R,2R)-1-hydroxy-1-(4-methoxyphenyl)-3-(pyrrolidin-1-yl)propan-2-ylcarbamate]
